From the Kinase Knowledgebase extract (Sharma et al. 2016) come the findings set out here.

The test deals with PIK3CD (Human) (UniProt O00329). Put plainly: Assessment of PIK3CD Kinase Activity (Scintillation Proximity Assay).
PIK3CD (Human), sequence (O00329 whole entry, looked up): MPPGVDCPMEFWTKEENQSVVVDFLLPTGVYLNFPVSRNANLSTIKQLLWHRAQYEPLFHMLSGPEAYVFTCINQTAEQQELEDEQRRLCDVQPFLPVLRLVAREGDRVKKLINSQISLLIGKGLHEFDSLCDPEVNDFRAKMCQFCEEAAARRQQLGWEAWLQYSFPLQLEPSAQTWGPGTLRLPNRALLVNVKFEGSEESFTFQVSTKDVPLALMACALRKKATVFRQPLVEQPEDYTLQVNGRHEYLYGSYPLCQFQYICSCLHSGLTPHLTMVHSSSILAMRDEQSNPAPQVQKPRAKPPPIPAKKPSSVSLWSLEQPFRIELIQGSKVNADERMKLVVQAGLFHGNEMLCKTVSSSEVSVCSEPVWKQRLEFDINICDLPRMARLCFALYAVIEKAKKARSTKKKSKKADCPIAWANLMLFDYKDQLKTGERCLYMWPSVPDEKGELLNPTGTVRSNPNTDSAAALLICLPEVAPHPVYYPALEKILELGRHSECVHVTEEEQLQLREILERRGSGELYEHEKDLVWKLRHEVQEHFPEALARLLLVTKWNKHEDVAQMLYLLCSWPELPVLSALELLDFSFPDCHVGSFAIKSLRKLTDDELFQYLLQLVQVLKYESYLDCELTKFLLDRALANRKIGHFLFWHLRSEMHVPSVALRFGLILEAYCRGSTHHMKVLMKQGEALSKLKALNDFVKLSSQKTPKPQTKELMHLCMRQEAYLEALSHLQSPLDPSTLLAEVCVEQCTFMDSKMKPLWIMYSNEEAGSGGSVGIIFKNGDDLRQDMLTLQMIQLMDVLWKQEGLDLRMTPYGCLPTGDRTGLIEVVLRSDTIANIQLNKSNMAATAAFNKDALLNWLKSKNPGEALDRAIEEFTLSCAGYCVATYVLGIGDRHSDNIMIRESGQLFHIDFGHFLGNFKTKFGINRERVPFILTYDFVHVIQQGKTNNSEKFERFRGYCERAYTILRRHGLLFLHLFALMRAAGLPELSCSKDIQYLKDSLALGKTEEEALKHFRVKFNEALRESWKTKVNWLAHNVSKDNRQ
Regarding `COc1c(C(C)n2nc(C)c3c(N)ncnc32)cc(Cl)c(C)c1-c1cncc(C(=O)N(C)CCO)c1` (centres undefined), the IC50 is at most 10 nM.
In turn, `CCOc1c(C(C)n2ccc(=O)c3c(N)ncnc32)cc(Cl)c(C#N)c1-c1cncc(S(C)(=O)=O)c1` (centres undefined) had an IC50 of at most 10 nM.
`COCCN1CC(c2c(C)c(Cl)cc(C(C)n3nc(C)c4c(N)ncnc43)c2OC)C1` (centres undefined) had an IC50 of at most 10 nM.
In the case of `CCOc1c(C(C)n2nc(C)c3c(N)ncnc32)cc(Cl)c(C)c1-c1ccc(C(=O)N(C)C)cn1` (centres undefined), the IC50 is at most 10 nM.
`CNC(=O)c1ccc(-c2c(C)c(Cl)cc(C(C)n3nc(C)c4c(N)ncnc43)c2OC)cc1F` (centres undefined) returned an IC50 of at most 10 nM.
`COc1c(C(C)n2nc(C(F)F)c3c(N)ncnc32)cc(Cl)c(F)c1C1CN(C(C)C)C1` (centres undefined) had an IC50 of at most 10 nM.
Consider `CCOc1c(C(C)n2nc(C)c3c(N)ncnc32)cc(Cl)c(C#N)c1C1CN(C(C)(C)C(=O)OC(C)(C)C)C1` (centres undefined), for which the concentration for half-maximal inhibition (IC50) is at most 10 nM.
As for `CCOc1c(C(C)n2nc(CC)c3c(N)ncnc32)cc(Cl)c(C)c1-c1ccc(C(=O)N(C)C)nc1` (centres undefined), the figure is 50 to 200 nM; as for `COc1c(C(C)n2nc(C)c3c(N)ncnc32)cc(Cl)c(C)c1C1CN(C(C)CF)C1` (centres undefined), at most 10 nM.
Next, `COc1c(C(C)n2nc(C)c3c(N)ncnc32)cc(Cl)c(C)c1C1CN([C@H](C)C(=O)N(C)C)C1` (some centres undefined): at most 10 nM; `CNC(=O)[C@H](C)N1CC(c2c(C)c(C#N)cc(C(C)n3nc(C(F)F)c4c(N)ncnc43)c2OC)C1` (some centres undefined): at most 10 nM; `COc1c(C(C)n2nc(C)c3c(N)ncnc32)cc(Cl)c(F)c1C1CN(C)C1` (centres undefined): at most 10 nM.
As for `CCOc1c(C(C)n2nc(C)c3c(N)ncnc32)cc(Cl)c(C#N)c1C1CN(C(=O)C(C)(C)O)C1` (centres undefined), the figure is at most 10 nM; as for `COc1c(C(C)n2ccc3c(N)ncnc32)cc(Cl)c(C)c1-c1ccc(C(=O)N(C)C)nc1` (centres undefined), 200 to 500 nM.
Molecule `COc1c(C(C)n2nc(C)c3c(N)ncnc32)cc(Cl)c(C)c1C1CC1` (centres undefined) gave an IC50 of 10 to 50 nM.
For the molecule `CCOc1c(C(C)n2nc(C)c3c(N)ncnc32)cc(Cl)c(C#N)c1C1CN(S(=O)(=O)C2CC2)C1` (centres undefined), the IC50 is at most 10 nM.
With `COc1c(C(C)n2nc(C)c3c(N)ncnc32)cc(Cl)c(C)c1-c1ccnc(C(=O)N(C)C)c1` (centres undefined), the half-maximal inhibitory concentration (IC50) is at most 10 nM.
Turning to `CCOc1c(C(C)n2nc(C)c3c(N)ncnc32)cc(Cl)c(C)c1C1CN(CCO)C1` (centres undefined), the IC50 is at most 10 nM.
For `CCOc1c(C(C)n2nc(C)c3c(N)ncnc32)cc(Cl)c(F)c1C1CN(CC)C1` (centres undefined), the IC50 was at most 10 nM.
Molecule `CCOc1c(C(C)n2nc(C)c3c(N)ncnc32)cc(Cl)c(C#N)c1C1CN(CC)C1` (centres undefined) showed an IC50 of at most 10 nM.
`CCOc1c(C(C)n2nc(C)c3c(N)ncnc32)cc(Cl)c(C)c1-c1cnn(C)c1` (centres undefined) yielded a concentration for half-maximal inhibition (IC50) of at most 10 nM.
The molecule `CCC(=O)N1CC(c2c(C)c(Cl)cc(C(C)n3nc(C)c4c(N)ncnc43)c2OC)C1` (centres undefined) came in with a 50% inhibitory concentration (IC50) of at most 10 nM.
Molecule `COc1c(C(C)n2nc(C)c3c(N)ncnc32)cc(Cl)c(C#N)c1C1CN(S(=O)(=O)C2CC2)C1` (centres undefined) yielded a half-inhibitory concentration (IC50) of at most 10 nM.
Next, `CCOc1c(C(C)n2nc(C)c3c(N)ncnc32)cc(Cl)c(C#N)c1-c1ccc(C(=O)N(C)C)nc1` (centres undefined): at most 10 nM.
As to `COc1c(C(C)n2nc(C(F)F)c3c(N)ncnc32)cc(C#N)c(F)c1C1CN(C[C@H](C)O)C1` (some centres undefined), the IC50 is at most 10 nM.
On to `COc1c(C(C)n2nc(C)c3c(N)ncnc32)cc(Cl)c(C)c1-c1cncc(S(C)(=O)=O)c1` (centres undefined), for which the IC50 was at most 10 nM.
As for `COC(=O)N1CC(c2c(C#N)c(Cl)cc(C(C)n3nc(C)c4c(N)ncnc43)c2OC)C1` (centres undefined), the IC50 is at most 10 nM.
For `COc1c(C(C)n2nc(C)c3c(N)ncnc32)cc(Cl)c(C)c1C1CN(C(CO)C(F)(F)F)C1` (centres undefined), the IC50 is at most 10 nM.
Turning to `CCOc1c(C(C)n2cc(C)c3c(N)ncnc32)cc(Cl)c(C#N)c1C1CN(C[C@H](C)O)C1` (some centres undefined), the IC50 was at most 10 nM.
The molecule `COc1c(C(C)n2nc(C)c3c(N)ncnc32)cc(Cl)c(C#N)c1-c1cncc(S(C)(=O)=O)c1` (centres undefined) yielded an IC50 of at most 10 nM.
The molecule `COc1c(C(C)n2nc(C)c3c(N)ncnc32)cc(Cl)c(C)c1C1CN(C2CCOC2)C1` (centres undefined) showed an IC50 of at most 10 nM.
As to `COc1c(C(C)n2nc(C(F)F)c3c(N)ncnc32)cc(C#N)c(F)c1C1CN(CCO)C1` (centres undefined), the IC50 is at most 10 nM.
`COc1c(C(C)n2nc(C)c3c(N)ncnc32)cc(Cl)c(C#N)c1C1CN(C2CCOC2)C1` (centres undefined) gave a 50% inhibitory concentration (IC50) of at most 10 nM.
`CCNC(=O)N1CC(c2c(C#N)c(Cl)cc(C(C)n3nc(C)c4c(N)ncnc43)c2OC)C1` (centres undefined): the IC50 is at most 10 nM.
Regarding `CCOc1c(C(C)n2nc(C)c3c(N)ncnc32)cc(Cl)c(C#N)c1-c1ccnc(C(=O)N(C)C)c1` (centres undefined), the IC50 is at most 10 nM.
On to `CCOc1c(C(C)n2nc(CO)c3c(N)ncnc32)cc(Cl)c(C)c1-c1ccc(C(=O)N(C)C)nc1` (centres undefined), for which the IC50 was at most 10 nM.
On to `COc1c(C(C)n2nc(C)c3c(N)ncnc32)cc(Cl)c(C#N)c1C1CN(C2COC2)C1` (centres undefined), for which the IC50 was at most 10 nM.
`COc1c(C(C)n2nc(C)c3c(N)ncnc32)cc(Cl)c(C)c1-c1ccc(C(=O)N(C)CCO)nc1` (centres undefined) yielded an IC50 of at most 10 nM.
Consider `COc1c(C(C)n2nc(C)c3c(N)ncnc32)cc(Cl)c(C)c1C1CN(C(C)C)C1` (centres undefined), for which the IC50 was at most 10 nM.
Next, `COc1c(C(C)n2nc(C)c3c(N)ncnc32)cc(Cl)c(C#N)c1C1CN(C(=O)C(C)C)C1` (centres undefined): at most 10 nM; `COc1c(C(C)n2ccc(=O)c3c(N)ncnc32)cc(Cl)c(C)c1-c1cncc(S(C)(=O)=O)c1` (centres undefined): at most 10 nM; `CNC(=O)[C@@H](C)N1CC(c2c(C)c(C#N)cc(C(C)n3nc(C(F)F)c4c(N)ncnc43)c2OC)C1` (some centres undefined): at most 10 nM.
On to `CCOc1c(C(C)n2nc(C)c3c(N)ncnc32)cc(Cl)c(C#N)c1C1CN(CCOC)C1` (centres undefined), for which the IC50 was at most 10 nM.
In the case of `CNC(=O)CCc1c(C)c(Cl)cc(C(C)n2nc(C)c3c(N)ncnc32)c1OC` (centres undefined), the IC50 was at most 10 nM.
`COc1c(C(C)n2nc(C)c3c(N)ncnc32)cc(Cl)c(C#N)c1C1CN(CC(C)C)C1` (centres undefined) had an IC50 of at most 10 nM.
`COc1c(C(C)n2nc(C)c3c(N)ncnc32)cc(Cl)c(F)c1C1CN(CC(C)(C)O)C1` (centres undefined): the IC50 is at most 10 nM.
In turn, `CCNC(=O)c1c(C)c(Cl)cc(C(C)n2nc(C)c3c(N)ncnc32)c1-c1cc(F)cc(F)c1` (centres undefined) returned a half-maximal inhibitory concentration (IC50) of at most 10 nM.
`COc1c(C(C)n2nc(-c3cnn(C)c3)c3c(N)ncnc32)cc(Cl)c(C)c1C1CN(CC#N)C1` (centres undefined): the IC50 is at most 10 nM.
The molecule `COc1c(C(C)n2nc(C)c3c(N)ncnc32)cc(Cl)c(C)c1-c1ccc(NCCO)nc1` (centres undefined) showed an IC50 of at most 10 nM.
Next, `COc1c(C(C)n2cc(-c3cn[nH]c3)c(=O)c3c(N)ncnc32)cc(Cl)c(C)c1-c1ccc(C(=O)N(C)C)nc1` (centres undefined): at most 10 nM; `CCOc1c(C(C)n2nc(C)c3c(N)ncnc32)cc(Cl)c(C)c1-c1cncc(S(C)(=O)=O)c1` (centres undefined): at most 10 nM.
With `CCOc1c(C(C)n2nc(C)c3c(N)ncnc32)cc(Cl)c(C#N)c1C1CN(CC(C)(C)O)C1` (centres undefined), the IC50 was at most 10 nM.
Molecule `CCOc1c(C(C)n2nc(C)c3c(N)ncnc32)cc(Cl)c(C#N)c1C1CN(S(C)(=O)=O)C1` (centres undefined) had an IC50 of at most 10 nM.
The molecule `CCOc1c(C(C)n2nc(C(F)F)c3c(N)ncnc32)cc(Cl)c(F)c1C1CN(C(C)C)C1` (centres undefined) displayed an IC50 of at most 10 nM.
Next, `COc1c(C(C)n2nc(C)c3c(N)ncnc32)cc(Cl)c(C#N)c1C1CN(CC2CCOC2)C1` (centres undefined): at most 10 nM.
Consider `CCOc1c(C(C)n2nc(CN(C)C)c3c(N)ncnc32)cc(Cl)c(C)c1-c1ccc(C(=O)N(C)C)nc1` (centres undefined), for which the IC50 was in the range of 50 to 200 nM.
`COc1c(C(C)n2nc(C)c3c(N)ncnc32)cc(Cl)c(C)c1-c1cnn(CCN(C)C)c1` (centres undefined) displayed an IC50 of at most 10 nM.
Turning to `CCOc1c(C(C)n2nc(C)c3c(N)ncnc32)cc(Cl)c(C#N)c1C1CN(C(COC)COC)C1` (centres undefined), the IC50 was at most 10 nM.
For the molecule `COc1c(C(C)n2nc(C)c3c(N)ncnc32)cc(Cl)c(C#N)c1C1CN(C(=O)C2CC2)C1` (centres undefined), the IC50 is at most 10 nM.
For the molecule `CCOc1c(C(C)n2nc(C)c3c(N)ncnc32)cc(Cl)c(C#N)c1N1CC(OC)C1` (centres undefined), the IC50 was at most 10 nM.
For the molecule `COc1c(C(C)n2nc(C)c3c(N)ncnc32)cc(Cl)c(C)c1-c1ccnc(N(C)C)c1` (centres undefined), the IC50 was at most 10 nM.
In turn, `CCOc1c(C(C)n2nc(-c3cc[nH]n3)c3c(N)ncnc32)cc(Cl)c(C)c1-c1ccc(C(=O)N(C)C)nc1` (centres undefined) showed an IC50 of at most 10 nM.
`COc1c(C(C)n2nc(C)c3c(N)ncnc32)cc(Cl)c(C)c1C1CN(C)C1` (centres undefined) gave an IC50 of at most 10 nM.
`CCOc1c(C(C)n2nc(-c3cnn(C)c3)c3c(N)ncnc32)cc(Cl)c(C)c1-c1ccc(C(=O)N(C)C)nc1` (centres undefined) showed an IC50 of at most 10 nM.
On to `COc1c(C(C)n2nc(C)c3c(N)ncnc32)cc(Cl)c(C#N)c1C1CN(CC2CCOCC2)C1` (centres undefined), for which the IC50 was at most 10 nM.
As for `CCOc1c(C(C)n2nc(C)c3c(N)ncnc32)cc(Cl)c(C#N)c1-c1ccc(C(C)(C)O)nc1` (centres undefined), the figure is at most 10 nM.
With `CCOc1c(C(C)n2nc(C(F)F)c3c(N)ncnc32)cc(Cl)c(F)c1C1CN(C[C@H](C)O)C1` (some centres undefined), the IC50 is at most 10 nM.
In the case of `CCOc1c(C(C)n2nc(C)c3c(N)ncnc32)cc(Cl)c(C#N)c1C1CN(CC(F)(F)F)C1` (centres undefined), the half-inhibitory concentration (IC50) was at most 10 nM.
In turn, `COc1c(C(C)n2nc(C)c3c(N)ncnc32)cc(Cl)c(C)c1-c1cncc(C(=O)N(C)C2CC2)c1` (centres undefined) returned an IC50 of at most 10 nM.
For `COc1c(C(C)n2nc(C)c3c(N)ncnc32)cc(Cl)c(C)c1-c1ccc(N)nc1` (centres undefined), the IC50 was at most 10 nM.
For the molecule `COc1c(C(C)n2cc(C)c(=O)c3c(N)ncnc32)cc(Cl)c(C)c1-c1ccc(C(=O)N(C)C)nc1` (centres undefined), the 50% inhibitory concentration (IC50) is at most 10 nM.
As for `CCOc1c(C(C)n2nc(C)c3c(N)ncnc32)cc(Cl)c(C#N)c1C1CN(C(C)(C)C(=O)NC)C1` (centres undefined), the figure is at most 10 nM.
For `COc1c(C(C)n2nc(C)c3c(N)ncnc32)cc(Cl)c(Cl)c1C1CN(C[C@H](C)O)C1` (some centres undefined), the half-maximal inhibitory concentration (IC50) is at most 10 nM.
`COc1c(C(C)n2nc(C)c3c(N)ncnc32)cc(Cl)c(C)c1C1CN(CC(N)=O)C1` (centres undefined): the IC50 is at most 10 nM.
Next, `COc1c(C(C)n2nc(C)c3c(N)ncnc32)cc(Cl)c(C)c1C1CCN(C)CC1` (centres undefined): at most 10 nM.
In turn, `COc1c(C(C)n2nc(C)c3c(N)ncnc32)cc(Cl)c(C#N)c1C1CN(C(=O)N(C)C)C1` (centres undefined) registered an IC50 of at most 10 nM.
Next, `COc1c(C(C)n2ccc(=O)c3c(N)ncnc32)cc(Cl)c(C)c1-c1cncc(F)c1` (centres undefined): at most 10 nM.
Consider `CCOc1c(C(C)n2nc(C)c3c(N)ncnc32)cc(Cl)c(C#N)c1C1CNC1` (centres undefined), for which the IC50 was at most 10 nM.
Next, `CCOc1c(C(C)n2nc(C)c3c(N)ncnc32)cc(Cl)c(C#N)c1C1CN(C(=O)OC)C1` (centres undefined): at most 10 nM.
